Holding throughout (set-up): species or system human
Assay [1] relates to UEA-1 binding sites on Caco-2 cell membrane preparations. Briefly: Single tier competition assay: inhibition of biotinylated UEA-1 binding, compound and biotinylated UEA-1 incubated together. Particulars: library MSI 27; for IC50: read-out: Single Tier Assay IC50. The essentials:
(§1)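 Plates coated with Caco-2 membrane preparation (10 μg/ml, carbonate buffer pH 9.6) and BSA-blocked. Single tier: compound and biotinylated UEA-1 incubated together overnight. Two tier: compound incubated overnight with membranes first, biotinylated UEA-1 added next. Bound UEA-1 detected by streptavidin-HRP/OPD, OD490.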

Assay [2] has the same test system. As to the kind of experiment: Competition assay of biotinylated UEA-1 binding, tier (single/two) not given. Particulars: tier not printed, library TPI 1066. The protocol:
The epithelial cell binding ability of compounds and mixtures obtained from synthetic combinatorial libraries was determined by competition assays. These assays were set up to measure the inhibition of binding of biotinylated UEA-1 to membrane preparations of the epithelial cell line Caco-2 (colon carcinoma cells-2), by compounds and mixtures of the combinatorial libraries. This cell line is a conventional model for epithelial cells.
Two competition inhibition assays were used in this case, namely single tier and two tier assays. These assays differed from each other in that in the single tier assay, the mixtures/compounds and the biotinylated UEA-1 were incubated together with the Caco-2 cell membrane preparations, while in case of the two-tier assay, the mixture/compounds were allowed to incubate alone with the cell membranes in the absence of biotinylated UEA-1, which was added in the next step. Addition of the extra step in the two-tier assay was to ensure that the compounds inhibiting the binding of biotinylated UEA-1 to the Caco-2 cell membranes were doing so by themselves binding to surface receptors on the Caco-2 cells and not to the biotinylated UEA-1. Each assay will be described in detail.
• 1. Confluent Caco-2 cell monolayers (grown in 75 cm^2 flasks for up to 1 week at 37° C. and 5% CO2) were washed twice in Dulbecco's PBS (DPBS). • 2. Cell monolayers were treated with 10 mM EDTA-DPBS for 5–10 min at 37° C. and cells were harvested by centrifugation at 1000 rpm for 5 min. • 3. Cells were washed 3 times in DPBS. • 4. […] The cells were homogenised for 30 sec. • 6. The homogenates were centrifuged in hard walled tubes at 40,000 rpm for 45 min at 4° C. • 7. […] The supernatant was removed and stored on ice. The procedure was repeated adding the second supernatant to the first. • 8. The protein concentration was determined using e.g. a Bio-Rad protein assay. • 9. All fractions were stored at −80° C. prior to use. Single Tier Assays: • 1. 96-well microtiter plates were coated with membrane preparations of Caco-2 cells either by allowing them to incubate on the plates for 2½ hours at room temperature or by incubating them overnight at 4° C. 100 μl of 10 μg/ml (in 0.05 M carbonate buffer, pH 9.6) of membrane preparation was added to each well. • 2. The plates were flicked out, patted dry and blocked with bovine serum albumin (BSA)/DPBS (200 μl/well) for 1 to 4 hours at room temperature after which they were washed three times in water. • 3. […] Control wells were also set up in which the Caco-2 cell membrane preparations were incubated with unconjugated UEA-1. […] Following overnight incubation the plates were washed thoroughly (3–6 times). The plates were flicked out, patted dry and biotinylated UEA-1 was detected with commercial Streptavidin conjugated to horseradish peroxidase (HRP) (CalBiochem). […] The plates were left to incubate for an hour at room temperature. • 6. The plates were then washed 3–6 times and the biotin-streptavidin binding was detected by adding an HRP substrate OPD (orthophenyl diamine) to each well. 100 μl/well of this substrate at a final concentration of 1.6 mg/ml was added to each well. Before adding to the wells, this substrate was activated by addition of 50 μl of 3% H2O2 per plate and the reaction was allowed to develop in the dark. • 7. The reaction was stopped by adding 50 μl of 4 N H2SO4 to each well after approximately 5–10 minutes or when sufficient colour had developed. The OD490 (absorbance at 490 nm) of each well was measured using a conventional 96 well plate reading spectrophotometer. Two Tier Assays: • 1. 96 well plates were coated with Caco-2 cell membrane preparations in the same manner as described in the single tier assay. • 2. […] 100 μl at these final concentrations were added to each well. • 4. The plates were then left to incubate overnight, a step that would allow the mixtures and compounds to interact with the Caco-2 cell membranes without the presence of the competitor (biotinylated UEA-1) itself. • 5. […]

Assay [3] has the same test system. Briefly: Two tier competition assay: compound incubated alone with membranes, biotinylated UEA-1 added in next step. The settings on record: library MSI 27; for IC50: read-out: Two Tier Assay IC50. The method in brief:
as §1

The mark [4] stands for this setting: 50 μg/ml, first pair of columns.
Where [5] appears, read: 50 μg/ml, second pair of columns.
Setting [6] is: 250 μg/ml, first pair of columns.
Where [7] appears, read: 250 μg/ml, second pair of columns.

The IC50 is the concentration needed to halve the response being measured. `O=C(O)c1cc(O)cc(O)c1` [compound 8, 3,5-dihydroxybenzoic acid]: in assay [1], the “Single Tier Assay IC50” value is 125.00 µg/mL. The values for the IC50 in assay [1] and in assay [3] were 299 µM and 412 µM, respectively. The “Av % Inhibition” value in assay [2] (setting [4]) is on record as 59%; in assay [2] (setting [5]), 0%; in assay [2] (setting [6]), 85%; in assay [2] (setting [7]) it was 50%. Moreover, in assay [3], the “Two Tier Assay IC50” value came out at 171.90 µg/mL.

Turning to `COc1ccc(C(=O)O)cc1OC` [compound 26, 3,4-Dimethoxybenzoic acid], the “Single Tier Assay IC50” value in assay [1] turned out to be 125.00 µg/mL. The IC50 came to 163 µM in assay [1] and 112 µM in assay [3]. Also, the “Av % Inhibition” value is −116% in assay [2] (setting [4]), 39% in assay [2] (setting [5]), −2% in assay [2] (setting [6]) and 56% in assay [2] (setting [7]). The “Two Tier Assay IC50” value in assay [3] turned out to be 85.62 µg/mL.

For `O=C(O)c1ccc(O)cc1` [compound 23, 4-Hydroxybenzoic acid], the IC50 in assay [1] and in assay [3] was 284 µM in each case. Further, the “Av % Inhibition” value was 52% in assay [2] (setting [4]), 39% in assay [2] (setting [5]), 21% in assay [2] (setting [6]) and 59% in assay [2] (setting [7]).

In the case of `COc1cc(C(=O)O)cc(OC)c1OC` [compound 20, 3,4,5-trimethoxybenzoic acid], the IC50 in assay [1] and in assay [3] was 212 µM in each case. For the same compound, the “Av % Inhibition” value in assay [2] (setting [4]) is listed as −121%; in assay [2] (setting [5]) it was 52%; in assay [2] (setting [6]), 24%; in assay [2] (setting [7]), 75%.

For the origin of these results see patent US7166296B2, “Pharmaceutical formulations and ligands for use therein; mimetics for UEA-1” (Sarlan, Ltd., priority 2001, dated 2007).
